Experimental data published in the NIST ThermoML archive (doi:10.1021/acs.jced.6b00388).
± gives the expanded uncertainty stated by the source. Blank lines part the entries; values can stand above or below the molecule they belong to.

Conditions: Liquid, Ebulliometric method (Recirculating still)

Structure (SMILES): C=CC1CC=CCC1 (stereo unspecified) [4-ethenylcyclohexene]
- vapor or sublimation pressure (377.75 K): 50 ± 1 kPa
- vapor or sublimation pressure (401.42 K): 100 ± 2 kPa

Structure (SMILES): CC=CCC#N [3-pentenenitrile]
- vapor or sublimation pressure (393.48 K): 50 ± 1 kPa
- vapor or sublimation pressure (418.25 K): 100 ± 2 kPa

- vapor or sublimation pressure (367.43 K): 50 ± 1 kPa
- vapor or sublimation pressure (392.75 K): 100 ± 2 kPa
Structure (SMILES): CC=C(C)C#N [2-methyl-2-butenenitrile]
